The structures appear in SMILES notation. Calls of active or inactive are those of the source.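 Rule for the calls: active = fitted curve reaches 200% activation at or below the highest valid dose tested for that compound; inconclusive = flat fit between 30 and 70% activation, or unreliable fit; inactive = the rest.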 Where only a bound is given, the exact number is not on record here.

One test deals with Endoplasmic reticulum aminopeptidase 2 (Homo sapiens) (UniProt Q6P179). The test can be described thus: enhanced ERAP2 Arg-AMC hydrolysis – biochemical, fluorescence plate reader, cherry-picked samples, selectivity assay for selective ERAP1 modulator project, dose response (AID 743319). As to conditions: recombinant ERAP2, Arg-AMC cleavage fluorescence, 1 h.
Sequence of Endoplasmic reticulum aminopeptidase 2 (Homo sapiens) (Q6P179 whole entry, looked up): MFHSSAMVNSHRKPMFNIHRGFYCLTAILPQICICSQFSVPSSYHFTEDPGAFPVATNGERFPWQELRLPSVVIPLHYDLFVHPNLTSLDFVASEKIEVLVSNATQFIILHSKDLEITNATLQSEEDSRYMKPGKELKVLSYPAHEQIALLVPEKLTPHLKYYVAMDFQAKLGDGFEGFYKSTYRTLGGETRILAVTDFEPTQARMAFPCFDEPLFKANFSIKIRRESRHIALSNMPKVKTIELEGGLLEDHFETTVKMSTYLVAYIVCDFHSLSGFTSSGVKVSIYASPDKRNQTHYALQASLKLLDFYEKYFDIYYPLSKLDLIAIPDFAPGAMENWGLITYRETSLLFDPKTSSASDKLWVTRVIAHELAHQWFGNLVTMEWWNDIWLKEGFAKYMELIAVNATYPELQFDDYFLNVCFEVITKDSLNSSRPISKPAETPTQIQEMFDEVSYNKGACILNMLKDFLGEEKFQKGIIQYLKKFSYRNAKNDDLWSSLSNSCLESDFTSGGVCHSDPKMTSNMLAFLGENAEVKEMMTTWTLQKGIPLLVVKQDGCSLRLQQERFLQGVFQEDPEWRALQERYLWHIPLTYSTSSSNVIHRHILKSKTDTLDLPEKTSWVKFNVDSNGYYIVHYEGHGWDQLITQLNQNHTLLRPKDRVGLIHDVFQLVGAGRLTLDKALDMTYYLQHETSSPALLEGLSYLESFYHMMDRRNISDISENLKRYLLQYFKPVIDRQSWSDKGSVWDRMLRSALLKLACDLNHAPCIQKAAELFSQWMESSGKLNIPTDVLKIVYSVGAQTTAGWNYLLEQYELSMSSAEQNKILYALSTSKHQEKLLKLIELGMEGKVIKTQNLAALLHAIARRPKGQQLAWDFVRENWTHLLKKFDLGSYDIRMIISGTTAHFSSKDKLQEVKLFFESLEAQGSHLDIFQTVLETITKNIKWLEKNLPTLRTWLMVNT
Turning to `CCN(CC)c1ccc2c(C)c(Cl)c(=O)oc2c1`, the AC200 is 1420 nM.

As for `CCCCc1cc(=O)oc2cc(O)ccc12`, the AC200 is 3980 nM.

As to `CCN1[C@@H]2c3ccc(/C=C/c4ccccc4)c(=O)n3C[C@H]1[C@H](CO)[C@H]2C(=O)N1CCOCC1`, the AC200 is 3520 nM.

`CCCN1[C@@H]2Cn3c(ccc(/C=C/c4ccccc4)c3=O)[C@H]1[C@@H](C(=O)NCc1ccccn1)[C@@H]2CO`: the AC200 was 2260 nM.

`Cc1ccc2nc3c(cc(C(=O)NCc4ccccc4)c(=N)n3CCCn3ccnc3)c(=O)n2c1`: the AC200 was > 11000 nM (inactive).

Turning to `O=c1oc2cc(O)ccc2cc1S(=O)(=O)c1ccccc1`, the AC200 was 592 nM.

Regarding `Cc1c(-c2ccccc2)c(=O)oc2cc(O)ccc12`, the AC200 was 2340 nM.

In the case of `COc1cccc(CN(C)Cc2cc(=O)oc3cc(O)c(Cl)cc23)c1`, the AC200 was 1620 nM.

As for `Cc1cc(=O)oc2cc(NS(=O)(=O)c3ccc(F)cc3)ccc12`, the AC200 is 2110 nM.

Regarding `CCc1cc(=O)oc2c(CN3CCN(C)CC3)c(O)ccc12`, the AC200 is 3170 nM.

With `O=c1ccc2cc(O)c(O)cc2o1`, the AC200 is 3270 nM.

As for `COC(=O)[C@@H]1[C@@H](CO)[C@@H]2Cn3c(ccc(/C=C/c4ccccc4)c3=O)[C@H]1N2C(=O)C1CCC1`, the AC200 is 2170 nM.

Turning to `C[C@@H]1CCCCO[C@@H](CN(C)C(=O)CCC(F)(F)F)[C@@H](C)CN([C@@H](C)CO)C(=O)c2cc(NS(=O)(=O)c3ccc(Cl)cc3)ccc2O1`, the AC200 was > 10000 nM (inactive).

In the case of `COC(=O)[C@H]1[C@H](CO)[C@H]2Cn3c(ccc(/C=C/c4ccccc4)c3=O)[C@@H]1N2C(=O)C1CCC1`, the AC200 is 1600 nM.

As for `CCNC(=O)[C@H]1[C@H](CO)[C@H]2Cn3c(ccc(/C=C/c4ccccc4)c3=O)[C@@H]1N2C(=O)C1CCCC1`, the AC200 is 1830 nM.

For the compound `Cc1c(O)ccc2c(CN3CCN(Cc4ccccc4)CC3)cc(=O)oc12`, the AC200 was 5190 nM.

On to `O=c1ccc2cc(OC3O[C@H](CO)[C@@H](O)[C@H](O)[C@H]3O)c(O)cc2o1` (some centres not stated), for which the AC200 is 857 nM.

With `COC(=O)Cc1c(C)c2ccc(O)c(CNCc3ccc(OC)c(OC)c3)c2oc1=O`, the AC200 was 1010 nM.

Still in this test, the particulars now being: recombinant ERAP2, Arg-AMC cleavage fluorescence, 1 h; at 5.6 µM (top of the series).
For the compound `C[C@@H]1CCCCO[C@@H](CN(C)Cc2ccc3c(c2)OCO3)[C@@H](C)CN([C@@H](C)CO)C(=O)c2cc(NS(=O)(=O)c3ccccc3)ccc2O1`, the activation is 12.7% (inactive).

The test is the same for the next values; noted with them: recombinant ERAP2, Arg-AMC cleavage fluorescence, 1 h; at 10 µM (top of the series).
As to `CCCN(C)C[C@@H]1OCCCC[C@@H](C)Oc2ccc(NS(=O)(=O)c3c(C)noc3C)cc2C(=O)N([C@H](C)CO)C[C@@H]1C`, the activation is -3.16% (inactive).

As to `Cc1noc(C)c1S(=O)(=O)N(C)C[C@@H]1OCCCC[C@@H](C)Oc2ccc(NS(=O)(=O)c3cccs3)cc2C(=O)N([C@@H](C)CO)C[C@@H]1C`, the activation is 21.7% (inactive).

In the case of `C[C@@H]1CCCCO[C@@H](CN(C)C)[C@H](C)CN([C@@H](C)CO)C(=O)c2cc(NC(=O)Nc3ccc(C(F)(F)F)cc3)ccc2O1`, the activation is 14.3% (inactive).

Staying with this test, now noted: recombinant ERAP2, Arg-AMC cleavage fluorescence, 1 h; at 11 µM (top of the series).
Turning to `C[C@H]1CN([C@@H](C)CO)C(=O)c2cccc(NC(=O)Nc3ccc(C(F)(F)F)cc3)c2O[C@@H]1CN(C)C`, the activation is 2.76% (inactive).

Turning to `O=C(O)c1cccc(NC(=O)c2ccccc2NC(=O)c2cccc([N+](=O)[O-])c2)c1`, the activation is 15.7% (inactive).

In the case of `COc1ccc(S(=O)(=O)Nc2ccc3c(c2)C(=O)N([C@@H](C)CO)C[C@H](C)[C@H](CN(C)C)OCCCC[C@@H](C)O3)cc1`, the activation is 5.02% (inactive).

Turning to `NC(=NCCc1c[nH]c2ccccc12)NS(=O)(=O)c1cc(F)ccc1F`, the activation is 9.24% (inactive).

Consider `COc1cccc(S(=O)(=O)N(C)C[C@@H]2Oc3ncccc3C(=O)N([C@H](C)CO)C[C@@H]2C)c1`, for which the activation was 4.98% (inactive).

Regarding `C[C@@H]1CCCCO[C@@H](CN(C)C)[C@@H](C)CN([C@@H](C)CO)C(=O)c2cc(NS(=O)(=O)c3ccc(F)cc3)ccc2O1`, the activation is 5.3% (inactive).

Consider `O=C(Nc1ccc(C(F)(F)F)cc1)N1[C@@H]2CNC[C@H]1C2c1ccc(-c2ccncc2)cc1` (some centres not stated), for which the activation was 1.51% (inactive).

As for `C[C@@H]1CN([C@H](C)CO)C(=O)c2cccc(NC(=O)Nc3ccccc3)c2O[C@@H]1CN(C)Cc1ccc(C(=O)O)cc1`, the activation was 23.3% (inactive).

For `CCCN(C)C[C@@H]1OCCCC[C@@H](C)Oc2ccc(NS(=O)(=O)c3ccccc3)cc2C(=O)N([C@H](C)CO)C[C@@H]1C`, the activation is 16% (inactive).

Consider `C[C@@H]1CCCCO[C@@H](CN(C)C)[C@@H](C)CN([C@@H](C)CO)C(=O)c2cc(NS(=O)(=O)c3ccc(Cl)cc3)ccc2O1`, for which the activation is 2.17% (inactive).

Consider `O=C(CSc1cn[nH]n1)Nc1cccc(C(=O)O)c1`, for which the activation is 13.8% (inactive).

For `COc1ccc(NC(=O)Nc2ccc3c(c2)C(=O)N([C@H](C)CO)C[C@@H](C)[C@@H](CN(C)Cc2ccc(C(=O)O)cc2)OCCCC[C@@H](C)O3)cc1`, the activation was 2.96% (inactive).

`Cc1noc(C)c1NC(=O)N(C)C[C@@H]1Oc2c(NC(=O)Nc3ccccc3)cccc2C(=O)N([C@H](C)CO)C[C@@H]1C`: the activation is 10.6% (inactive).

Consider `C[C@H]1CN([C@@H](C)CO)C(=O)c2cccc(NC(=O)Nc3ccc(F)cc3)c2O[C@@H]1CN(C)C(=O)Nc1ccc2c(c1)OCO2`, for which the activation is 18.2% (inactive).

Take `CO[C@@H]1CN(C)C(=O)c2ccc(NC(=O)Nc3cccc(Cl)c3)cc2OC[C@@H](C)NC[C@H]1C`: the activation is 3.9% (inactive).

In the case of `C[C@@H]1CCCCO[C@@H](CN(C)CC2CC2)[C@@H](C)CN([C@H](C)CO)C(=O)c2cc(NS(=O)(=O)c3ccc(Cl)cc3)ccc2O1`, the activation is 18.4% (inactive).

With `CCn1cc(CN2CCCC(C(=O)Nc3ccc(-c4nc5ccccc5[nH]4)cc3)C2)c(C)n1` (configuration not stated), the activation is 4.78% (inactive).

Turning to `C[C@@H]1CCCCO[C@@H](CN(C)CC2CC2)[C@@H](C)CN([C@H](C)CO)C(=O)c2cc(NS(=O)(=O)c3cccs3)ccc2O1`, the activation is 14.7% (inactive).

In the case of `Cc1ccccc1-c1ccc2c(c1)O[C@@H](CN(C)Cc1ccc(C(=O)O)cc1)[C@@H](C)CN([C@H](C)CO)S2(=O)=O`, the activation is 8.67% (inactive).

On to `C[C@@H]1CCCCO[C@@H](CN(C)Cc2ccc(C(=O)O)cc2)[C@@H](C)CN([C@H](C)CO)C(=O)c2cc(NC(=O)Nc3cccc4ccccc34)ccc2O1`, for which the activation is 5.34% (inactive).

In the case of `COc1ccc(CN(C)C[C@H]2OCCCC[C@@H](C)Oc3ccc(NS(=O)(=O)c4cccs4)cc3C(=O)N([C@@H](C)CO)C[C@H]2C)cc1`, the activation was 2.79% (inactive).

In the case of `COc1ccc(C(=O)O)cc1S(=O)(=O)Nc1cc(C(F)(F)F)ccc1N1CCCCC1`, the activation was 8.35% (inactive).

In the case of `CCCNC(=O)C[C@H]1CC[C@@H]2[C@H](COC[C@H](O)CN2C(=O)Nc2cccc(Cl)c2)O1`, the activation is 19.4% (inactive).

Consider `C[C@@H]1CCCCO[C@H](CN(C)Cc2ccc(C(=O)O)cc2)[C@@H](C)CN([C@H](C)CO)C(=O)c2cc(NC(=O)Nc3ccc(C(F)(F)F)cc3)ccc2O1`, for which the activation is 2.62% (inactive).

For the compound `COc1ccc(NC(=O)Nc2ccc3c(c2)C(=O)N([C@@H](C)CO)C[C@@H](C)[C@H](CN(C)Cc2ccc(C(=O)O)cc2)OCCCC[C@H](C)O3)cc1`, the activation is 37.6% (inactive).

Source of the values: PubChem BioAssay AID743319 (Broad Institute, 2014).
